“And” between values parts separate entries of the source, which are not always exact repeats. Identical values can stand only once. Like-named read-outs stand apart in the source and are kept apart here. Bridge positions count the residues as written; N and C are the ends. Square brackets hold non-standard residues; d marks the D form. Peptide text beside a SMILES is read from it. * marks the point of attachment. ξ: configuration not given here. DOTA = O=C(O)CN1CCN(CC(=O)O)CCN(CC(=O)*)CCN(CC(=O)O)CC1; Phe(4-NO2) = N[C@@H](Cc1ccc([N+](=O)[O-])cc1)C(=O)O; dPhe(4-NHCONH2) = NC(=O)Nc1ccc(C[C@@H](N)C(=O)O)cc1; Phe(4-NHCONH2) = NC(=O)Nc1ccc(C[C@H](N)C(=O)O)cc1; dTrp(5-F) = N[C@H](Cc1c[nH]c2ccc(F)cc12)C(=O)O; Phe(4-Cl) = N[C@@H](Cc1ccc(Cl)cc1)C(=O)O; ξDihydroorotoyl = O=C1CC(C(=O)*)NC(=O)N1; 2Nal = N[C@@H](Cc1ccc2ccccc2c1)C(=O)O; ξPhe(4-NH2) = Nc1ccc(CC(N)C(=O)O)cc1
Key:
human sst2A receptor = target: T1, human sst2A receptor (Homo sapiens, UniProt P30874); assay: Immunofluorescence-based sst2 internalization assay in HEK-sst2 cells; assay type: cell-based; settings: for sst2-internalization tested in vitro in HEK-sst2 cells (function): n ≧ 2
T1 construct: expressed in transfected cells; host or cells: HEK293 (HEK-sst2)
Experimental: Immunofluorescence-based sst2 Internalization Assay. Immunofluorescence microscopy-based internalization assay for sst2 was performed with HEK-sst2 using the sst2-specific antibody R2-88 as described elsewhere herein. HEK-sst2 cells were treated either with vehicle alone, the sst2 agonist [Tyr^3]-octreotide at a concentration of 100 nM, [Tyr^3]-octreotide at a concentration of 100 nM in the presence of an excess of the SRIF analogues to be tested (100 times the concentration of [Tyr^3]-octreotide), or with the SRIF analogues to be tested alone at a concentration of 10 μM, and then processed for immunofluorescence microscopy as described previously.

sst2 = sst2 (Homo sapiens, UniProt P30874); assay: Calcium release assay in HEK-sst2 cells (Fluo-4NW); assay type: cell-based; parameters: expressed in transfected cells; host or cells: HEK293 (HEK-sst2); settings: n ≧ 2
Experimental: Calcium release assay. Intracellular calcium release was measured in HEK-sst2 using the Fluo-4NW Calcium Assay kit as described previously (Magrys, et al. “The role of anti-alpha-enolase autoantibodies in pathogenicity of autoimmune-mediated retinopathy.” J. Clin. Immunol. 2007, 27, 181-192; Michel et al. “The Nef protein of human immunodeficiency virus is a broad-spectrum modulator of chemokine receptor cell surface levels that acts independently of classical motifs for receptor endocytosis and Galphai signaling.” Mol. Biol. Cell. 2006, 17, 3578-3590). In brief, HEK-sst2 cells were seeded (25,000 cells per well) in poly-D-lysine (20 μg/mL) coated 96 well plates and cultured for 1 day at 37° C. and 5% CO2 in culture medium. At the day of the experiment, the cells were washed with assay buffer (1×HBSS, 20 mM HEPES) containing 2.5 mM probenecid, and then loaded with 100 μL/well Fluo-4NW dye in assay buffer containing 2.5 mM probenecid for 30 min at 37° C. and 5% CO2 and then for further 30 min at room temperature. To measure the intracellular calcium mobilization after stimulation with the SRIF analogues to be tested, the dye-loaded cells were transferred to a SpectraMax M2^e (Molecular Devices, Sunnyvale, Calif.). Intracellular calcium mobilization was recorded in a kinetic for 60 sec at room temperature monitoring fluorescence emission at 520 nm (with λex=485 nm) in the presence of the analogues at the concentrations indicated. Maximum fluorescence (Fmax) was measured after the addition of 25 μM ionomycin. Baseline (control) measurements were taken for dye-loaded, untreated cells. Data are shown as percentage of Fmax (% Fmax) as reported previously. (Magrys, et al. J. Clin. Immunol. 2007, 27, 181-192; Michel et al. Mol. Biol. Cell. 2006, 17, 3578-3590). All experiments were repeated at least three times in triplicate.

hSSTR2 = target: T2, hSSTR2 (Homo sapiens, UniProt P30874); assay: Receptor autoradiography, displacement of 125I-[Leu8,D-Trp22,Tyr25]-SRIF-28 from membrane pellet sections; assay type: binding
T2 construct: expressed in transfected cells; host or cells: CHO-K1 or CCL39 cells
Experimental: (§1) Generally, recombinant cells expressing the receptor are washed and homogenized to prepare a crude protein homogenate in a suitable buffer. In a typical assay, an amount of protein from the cell homogenate is placed into a small volume of an appropriate assay buffer at an appropriate pH. Candidate substances, such as potential SRIF agonists and antagonists, are added to the admixture in convenient concentrations, and the interaction between the candidate substance and the receptor polypeptide is monitored.
(§2) In vitro Bioassay: The effects of the various somatostatin analogs were tested in vitro for their ability to bind to isolated cloned receptors expressed on CHO-K1 cells and CCL39 cells. The molecular cloning of the genes encoding multiple somatostatin receptor subtypes permitted the individual expression of these receptors in mammalian cells and the characterization of their respective pharmacological profiles.
(§3) CHO-K1 cells were grown in Ham's F-12 medium, and CCL39 cells were grown in Dulbecco's modified Eagle's medium/Ham's F-12(1:1) mix, supplemented with 10% fetal bovine serum, 100 U/ml penicillin and 100 μg/ml streptomycin, in humidified air containing 5% CO2 at 37° C. Cells were washed twice with and scraped into ice-cold 0.05 M Tris-HCl (pH 7.4), collected by centrifugation, and homogenized using a rotor/stator/system in the same buffer. After centrifugation at 120 g for 5 min at 4° C., the supernatant was collected and centrifuged again at 48,000 g for 30 min at 4° C. The resulting pellet was resuspended in ice-cold Tris buffer, transferred into a microfuge tube, and centrifuged at 20,000 g for 15 min at 4° C. After withdrawal of the supernatant, the membrane pellet was stored at −80° C.
(§4) Receptor autoradiography was performed on 20 μm thick cryostat sections of the membrane pellets, mounted on microscope slides, and then stored at −20° C. […] Increasing concentrations of the unlabeled peptide were used ranging from 0.1-1000 nM. […] IC50 values were calculated after quantification of the data using a computer-assisted image processing system as known in this art.
(§5) The numbers in parentheses indicate the number of times the particular binding test was carried out.
(§6) Receptor autoradiography. Cell membrane pellets were prepared as previously described, and stored at −80° C. Receptor autoradiography was performed on 20-μm thick cryostat (Microm HM 500, Walldorf, Germany) sections of the membrane pellets, mounted on microscope slides, and then stored at −20° C. […] After a brief dip in distilled water to remove excess salts, the sections were dried quickly and exposed for 1 week to Kodak BioMax MR film. IC50 values were calculated after quantification of the data using a computer-assisted image processing system as described previously. […] (Reubi, J. C. “In vitro identification of vasoactive intestinal peptide receptors in human tumors: Implications for tumor imaging.” J. Nucl. Med. 1995, 36, 1846-1853).
(§7) To investigate their ssts binding properties, the peptides were tested for their ability to bind to cryostat sections from membrane pellets of cells expressing the five human ssts (Table 3).

hSSTR1 = target: T3, hSSTR1 (Homo sapiens, UniProt P30872); assay: as above; assay type: binding; settings: for IC50: Table 3, mean ± SEM when N ≧ 3, read-out: sst1 binding affinity (IC50)
T3 construct: expressed in transfected cells; host or cells: CHO-K1 or CCL39 cells
Experimental: as §1, §2, §3, §4, §5, §6, §7

hSSTR5 = target: T4, hSSTR5 (Homo sapiens, UniProt P35346); assay: as above; assay type: binding; settings: for IC50: Table 3, mean ± SEM when N ≧ 3, read-out: sst5 binding affinity (IC50)
T4 construct: expressed in transfected cells; host or cells: CHO-K1 or CCL39 cells
Experimental: as §1, §2, §3, §4, §5, §6, §7

hSSTR4 = target: T5, hSSTR4 (Homo sapiens, UniProt P31391); assay: as above; assay type: binding; settings: for IC50: Table 3, mean ± SEM when N ≧ 3, read-out: sst4 binding affinity (IC50)
T5 construct: expressed in transfected cells; host or cells: CHO-K1 or CCL39 cells
Experimental: as §1, §2, §3, §4, §5, §6, §7

hSSTR3 = target: T6, hSSTR3 (Homo sapiens, UniProt P32745); assay: as above; assay type: binding; settings: for IC50: Table 3, mean ± SEM when N ≧ 3, read-out: sst3 binding affinity (IC50)
T6 construct: expressed in transfected cells; host or cells: CHO-K1 or CCL39 cells
Experimental: as §1, §2, §3, §4, §5, §6, §7

[1] = Table 3, mean ± SEM when N ≧ 3, read-out: sst2 binding affinity (IC50)

Chain of sst2 (P30874 whole entry): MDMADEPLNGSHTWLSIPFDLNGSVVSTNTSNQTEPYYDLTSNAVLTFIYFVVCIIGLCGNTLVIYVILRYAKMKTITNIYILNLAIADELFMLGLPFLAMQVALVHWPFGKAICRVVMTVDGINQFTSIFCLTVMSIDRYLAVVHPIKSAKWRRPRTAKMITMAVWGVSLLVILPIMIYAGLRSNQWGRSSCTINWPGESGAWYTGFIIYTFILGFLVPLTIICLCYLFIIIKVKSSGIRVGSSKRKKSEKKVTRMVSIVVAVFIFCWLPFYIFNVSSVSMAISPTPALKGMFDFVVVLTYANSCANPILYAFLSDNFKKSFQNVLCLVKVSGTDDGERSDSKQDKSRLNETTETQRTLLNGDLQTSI
T1 sequence (P30874 whole entry): as above
T2 sequence (P30874 whole entry): as above
T6 sequence (P32745 whole entry): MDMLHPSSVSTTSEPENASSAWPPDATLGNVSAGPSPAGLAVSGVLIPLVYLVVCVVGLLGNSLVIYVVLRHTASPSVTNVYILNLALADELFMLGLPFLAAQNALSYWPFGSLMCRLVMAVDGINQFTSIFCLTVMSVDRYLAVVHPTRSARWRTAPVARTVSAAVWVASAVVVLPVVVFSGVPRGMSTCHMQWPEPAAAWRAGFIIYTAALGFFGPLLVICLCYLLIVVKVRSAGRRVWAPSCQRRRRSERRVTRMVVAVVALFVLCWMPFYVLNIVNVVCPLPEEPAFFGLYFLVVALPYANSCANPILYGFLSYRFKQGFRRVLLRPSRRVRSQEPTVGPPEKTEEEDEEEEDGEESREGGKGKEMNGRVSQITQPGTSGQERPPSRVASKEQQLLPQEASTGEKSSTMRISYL
T3 sequence (P30872 whole entry): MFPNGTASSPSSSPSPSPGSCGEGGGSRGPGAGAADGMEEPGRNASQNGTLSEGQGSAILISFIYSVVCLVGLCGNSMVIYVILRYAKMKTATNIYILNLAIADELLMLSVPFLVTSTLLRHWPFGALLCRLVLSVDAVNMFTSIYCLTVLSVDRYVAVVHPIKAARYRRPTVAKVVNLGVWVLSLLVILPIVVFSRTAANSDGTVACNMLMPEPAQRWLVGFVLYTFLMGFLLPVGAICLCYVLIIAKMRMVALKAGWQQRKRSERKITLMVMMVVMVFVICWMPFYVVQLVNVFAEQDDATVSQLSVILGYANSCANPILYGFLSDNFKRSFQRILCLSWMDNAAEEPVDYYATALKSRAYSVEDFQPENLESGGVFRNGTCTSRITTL
T4 sequence (P35346 whole entry): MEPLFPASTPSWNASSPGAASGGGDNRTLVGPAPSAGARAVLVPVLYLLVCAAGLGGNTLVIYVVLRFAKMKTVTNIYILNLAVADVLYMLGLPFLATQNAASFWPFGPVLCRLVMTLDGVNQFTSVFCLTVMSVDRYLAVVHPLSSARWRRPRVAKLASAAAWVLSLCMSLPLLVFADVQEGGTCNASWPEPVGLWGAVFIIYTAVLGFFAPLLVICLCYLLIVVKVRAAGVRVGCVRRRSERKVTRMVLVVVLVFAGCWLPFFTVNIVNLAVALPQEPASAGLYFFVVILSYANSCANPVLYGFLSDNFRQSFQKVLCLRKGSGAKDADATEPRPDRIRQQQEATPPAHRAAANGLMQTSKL
T5 sequence (P31391 whole entry): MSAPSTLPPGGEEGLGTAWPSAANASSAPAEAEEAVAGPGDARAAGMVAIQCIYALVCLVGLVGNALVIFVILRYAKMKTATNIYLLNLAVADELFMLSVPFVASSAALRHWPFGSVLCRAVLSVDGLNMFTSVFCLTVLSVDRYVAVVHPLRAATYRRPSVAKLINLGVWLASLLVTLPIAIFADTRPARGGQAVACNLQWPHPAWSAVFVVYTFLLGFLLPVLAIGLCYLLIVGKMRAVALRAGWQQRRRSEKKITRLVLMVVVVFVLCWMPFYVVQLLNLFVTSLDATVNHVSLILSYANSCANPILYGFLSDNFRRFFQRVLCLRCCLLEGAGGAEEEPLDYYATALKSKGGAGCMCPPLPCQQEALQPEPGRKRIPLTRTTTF

Calcium release tested in vitro in HEK-sst2 cells (function) (sst2)	sst2-internalization tested in vitro in HEK-sst2 cells (function) (human sst2A receptor)	IC50 (hSSTR2; [1]) [nM]	IC50 (hSSTR1) [nM]	IC50 (hSSTR5) [nM]	IC50 (hSSTR4) [nM]	IC50 (hSSTR3) [nM]	Compound	further results
agonistic effect							[Tyr^3]-octreotide [reference compound]	sst2 internalization, given alone (human sst2A receptor; FIG. 2, antagonists at 10 μM): can induce sst2 internalization
Antagonist	Antagonist	4.9 ± 1.5	> 1000	94 ± 34	287 ± 64	50 ± 5.8	C[C@@H](O)[C@@H]1NC(=O)[C@H](CCCCN)NC(=O)[C@@H](Cc2c[nH]c3ccc(F)cc23)NC(=O)[C@H](Cc2ccc(NC(N)=O)cc2)NC(=O)[C@H](NC(=O)[C@@H](N)Cc2ccc(Cl)cc2)CSSC[C@@H](C(=O)N[C@@H](Cc2ccc3ccccc3c2)C(N)=O)NC1=O [compound 25, H2N-Cpa-c[DCys-Aph(Cbm)-5F-DTrp-Lys-Thr-Cys]-2Nal-NH2] (H-[Phe(4-Cl)][dC][Phe(4-NHCONH2)][dTrp(5-F)]KTC[2Nal]-NH2; disulfide 2-7)	
Antagonist	Antagonist						C[C@@H](O)[C@@H]1NC(=O)[C@H](CCCCN)NC(=O)[C@@H](Cc2c[nH]c3ccccc23)NC(=O)[C@H](Cc2ccc(NC(N)=O)cc2)NC(=O)[C@H](NC(=O)[C@@H](N)Cc2ccc(Cl)cc2)CSSC[C@@H](C(=O)N[C@@H](Cc2ccc3ccccc3c2)C(N)=O)NC1=O [compound 12, H2N-Cpa-c[DCys-Aph(Cbm)-DTrp-Lys-Thr-Cys]-2Nal-NH2]	
Antagonist	Antagonist						C[C@@H](O)[C@@H]1NC(=O)[C@H](CCCCN)NC(=O)[C@@H](Cc2ccc(NC(N)=O)cc2)NC(=O)[C@H](Cc2ccc(O)cc2)NC(=O)[C@H](NC(=O)[C@H](Cc2ccc(Cl)cc2)NC(=O)CN2CCN(CC(=O)O)CCN(CC(=O)O)CCN(CC(=O)O)CC2)CSSC[C@@H](C(=O)N[C@@H](Cc2ccc3ccccc3c2)C(N)=O)NC1=O [Peptide No. 28, DOTA-Cpa-c[DCys-Tyr-DAph(Cbm)-Lys-Thr-Cys]-2Nal-NH2] ({DOTA}-[Phe(4-Cl)][dC]Y[dPhe(4-NHCONH2)]KTC[2Nal]-NH2; disulfide 2-7)	IC50 (hSSTR2; Table 1, inhibition of radioligand binding to cloned human receptor, read-out: IC50 hSSTR2): ~1.8 nM and 1.8 nM; effect on binding of the SRIF-28 radioligand to SSTR1 (hSSTR1; 100 nM): minimal effects; effect on binding of the SRIF-28 radioligand to SSTR5 (hSSTR5; 100 nM): minimal effects; effect on binding of the SRIF-28 radioligand to SSTR4 (hSSTR4; 100 nM): minimal effects; effect on binding of the SRIF-28 radioligand to SSTR3 (hSSTR3; 100 nM): minimal effects
	Antagonist	2.6	> 1000	> 1000	> 1000	384	C[C@@H](O)[C@@H]1NC(=O)[C@H](CCCCN)NC(=O)[C@@H](Cc2ccc(NC(N)=O)cc2)NC(=O)[C@H](Cc2ccc(O)cc2)NC(=O)[C@H](NC(=O)[C@@H](N)Cc2ccc([N+](=O)[O-])cc2)CSSC[C@@H](C(=O)N[C@@H](Cc2ccc3ccccc3c2)C(N)=O)NC1=O [compound 4, H2N-pNO2Phe-c[DCys-Tyr-DAph(Cbm)-Lys-Thr-Cys]-2Nal-NH2] (H-[Phe(4-NO2)][dC]Y[dPhe(4-NHCONH2)]KTC[2Nal]-NH2; disulfide 2-7)	
Antagonist	Antagonist	1.5	> 1000	> 1000	287 ± 27	> 1000	C[C@@H](O)[C@@H]1NC(=O)[C@H](CCCCN)NC(=O)[C@@H](Cc2c[nH]c3ccccc23)NC(=O)[C@H](Cc2ccc(O)cc2)NC(=O)[C@H](NC(=O)[C@H](Cc2ccc([N+](=O)[O-])cc2)NC(=O)CN2CCN(CC(=O)O)CCN(CC(=O)O)CCN(CC(=O)O)CC2)CSSC[C@@H](C(=O)N[C@H](Cc2ccc(O)cc2)C(N)=O)NC1=O [compound 2, DOTA-pNO2Phe-c[DCys-Tyr-DTrp-Lys-Thr-Cys]-DTyr-NH2]	
Antagonist	Antagonist						C[C@@H](O)[C@@H]1NC(=O)[C@H](CCCCN)NC(=O)[C@@H](Cc2ccc(NC(N)=O)cc2)NC(=O)C(Cc2ccc(NC(=O)C3CC(=O)NC(=O)N3)cc2)NC(=O)[C@H](NC(=O)[C@@H](N)Cc2ccc(Cl)cc2)CSSC[C@@H](C(=O)N[C@@H](Cc2ccc3ccccc3c2)C(N)=O)NC1=O (stereo partly drawn) [compound 29, H2N-Cpa-c[DCys-Aph(Hor)-DAph(Cbm)-Lys-Thr-Cys]-2Nal-NH2] (H-[Phe(4-Cl)][dC][ξPhe(4-NH2)](ξDihydroorotoyl)[dPhe(4-NHCONH2)]KTC[2Nal]-NH2; disulfide 2-7)	
	Antagonist					> 1000	CC(=O)N[C@@H](Cc1ccc([N+](=O)[O-])cc1)C(=O)N[C@@H]1CSSC[C@@H](C(=O)N[C@H](Cc2ccc(O)cc2)C(N)=O)NC(=O)[C@H]([C@@H](C)O)NC(=O)[C@H](CCCCN)NC(=O)[C@@H](Cc2c[nH]c3ccccc23)NC(=O)[C@H](Cc2ccc(O)cc2)NC1=O [compound 1, Ac-pNO2Phe-c[DCys-Tyr-DTrp-Lys-Thr-Cys]-DTyr-NH2, reference compound]	

Compound	Calcium release tested in vitro in HEK-sst2 cells (function) (sst2)	sst2-internalization tested in vitro in HEK-sst2 cells (function) (human sst2A receptor)	IC50 (hSSTR2; [1]) [nM]	IC50 (hSSTR1) [nM]	IC50 (hSSTR5) [nM]	IC50 (hSSTR4) [nM]	IC50 (hSSTR3) [nM]	further results
C[C@@H](O)[C@@H]1NC(=O)[C@H](CCCCN)NC(=O)[C@@H](Cc2c[nH]c3ccccc23)NC(=O)[C@H](N(C)C(=O)c2ccccc2)NC(=O)[C@H](NC(=O)[C@@H](N)Cc2ccc(Cl)cc2)CSSC[C@@H](C(=O)N[C@@H](Cc2ccc3ccccc3c2)C(N)=O)NC1=O [compound 9, H2N-Cpa-c[DCys-L-Agl(NMe.benzoyl)-DTrp-Lys-Thr-Cys]-2Nal-NH2]		Antagonist						loss of binding affinity for sst2 as compared to 7 (hSSTR2): 3 fold
